Assay results: the supplement of paper PMC10307832

How the values were obtained:
Experiment in all cases: relative viability (nuclei count vs DMSO), 5 days (fraction); higher = more cells survive
Pazopanib + Trametinib = compound: Cc1ccc(Nc2nccc(N(C)c3ccc4c(C)n(C)nc4c3)n2)cc1S(N)(=O)=O [Pazopanib] + CC(=O)Nc1cccc(-n2c(=O)n(C3CC3)c(=O)c3c(Nc4ccc(I)cc4F)n(C)c(=O)c(C)c32)c1 [Trametinib] (partner 0.02 µM)
Procedure, shortened: (§1)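 Lung cancer cell lines in 1536-well plates were dosed by pin tool the day after seeding, either with one drug alone or with a fixed anchor-drug dose plus five library-drug doses (not always all listed) in √10 steps. After 5 days, cells were fixed and their nuclei stained in one step (final 0.05% Triton X-100, 1% formaldehyde, 1 ug/ml Hoechst), then counted on 4× images. Relative viability is the nuclei count in treated wells divided by that in vehicle wells. Values are medians of duplicate plates.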

Ponatinib + Vorinostat = compound: Cc1ccc(C(=O)Nc2ccc(CN3CCN(C)CC3)c(C(F)(F)F)c2)cc1C#Cc1cnc2cccnn12 [Ponatinib] + O=C(CCCCCCC(=O)Nc1ccccc1)NO [Vorinostat] (partner 1 µM)
Procedure, shortened: as §1

Pazopanib + Navitoclax = compound: Cc1ccc(Nc2nccc(N(C)c3ccc4c(C)n(C)nc4c3)n2)cc1S(N)(=O)=O [Pazopanib] + CC1(C)CCC(c2ccc(Cl)cc2)=C(CN2CCN(c3ccc(C(=O)NS(=O)(=O)c4ccc(N[C@H](CCN5CCOCC5)CSc5ccccc5)c(S(=O)(=O)C(F)(F)F)c4)cc3)CC2)C1 [Navitoclax] (partner 0.5 µM)
Procedure, shortened: as §1

Ponatinib + Foretinib = compound: Cc1ccc(C(=O)Nc2ccc(CN3CCN(C)CC3)c(C(F)(F)F)c2)cc1C#Cc1cnc2cccnn12 [Ponatinib] + COc1cc2c(Oc3ccc(NC(=O)C4(C(=O)Nc5ccc(F)cc5)CC4)cc3F)ccnc2cc1OCCCN1CCOCC1 [Foretinib] (partner 0.25 µM)
Procedure, shortened: as §1

| Cell Line | relative viability (Pazopanib + Trametinib; first compound 0.01 µM) | relative viability (Pazopanib + Trametinib; first compound 0.03162 µM) | relative viability (Pazopanib + Trametinib; first compound 0.1 µM) | relative viability (Pazopanib + Trametinib; first compound 0.3162 µM) | relative viability (Pazopanib + Trametinib; first compound 1 µM) | relative viability (Ponatinib + Vorinostat; first compound 0.002 µM) | relative viability (Ponatinib + Vorinostat; first compound 0.006325 µM) | relative viability (Ponatinib + Vorinostat; first compound 0.06325 µM) | relative viability (Ponatinib + Vorinostat; first compound 0.2 µM) | relative viability (Pazopanib + Navitoclax; first compound 0.01 µM) | relative viability (Pazopanib + Navitoclax; first compound 0.03162 µM) | relative viability (Pazopanib + Navitoclax; first compound 0.1 µM) | relative viability (Pazopanib + Navitoclax; first compound 0.3162 µM) | relative viability (Pazopanib + Navitoclax; first compound 1 µM) | relative viability (Ponatinib + Foretinib; first compound 0.002 µM) | relative viability (Ponatinib + Foretinib; first compound 0.006325 µM) | relative viability (Ponatinib + Foretinib; first compound 0.06325 µM) | relative viability (Ponatinib + Foretinib; first compound 0.2 µM) |
| --- | --- | --- | --- | --- | --- | --- | --- | --- | --- | --- | --- | --- | --- | --- | --- | --- | --- | --- |
| HCC-827 | 0.558 | 0.551 | 0.546 | 0.547 | 0.559 | 0.736 | 0.78 | 0.821 | 0.801 | 1.06 | 1.02 | 1.11 | 1.07 | 0.98 | 0.971 | 1.02 | 0.997 | 1 |
| HOP-62 | 0.378 | 0.371 | 0.421 | 0.427 | 0.5 | 0.516 | 0.509 | 0.682 | 0.597 | 1.13 | 1.08 | 1.01 | 1.03 | 0.944 | 0.999 | 1 | 1 | 0.914 |
| IA-LM |  |  |  |  |  | 0.913 | 0.875 | 0.861 | 0.783 | 0.815 | 0.782 | 0.778 | 0.792 | 0.625 | 1.06 | 1.1 | 1.01 | 1.06 |
| LC-2-ad | 0.905 | 0.934 | 0.89 | 0.915 | 0.858 | 0.653 | 0.667 | 0.626 | 0.591 | 0.411 | 0.48 | 0.588 | 0.485 | 0.335 | 0.915 | 0.859 | 0.966 | 0.842 |
| LCLC-97TM1 |  | 0.218 | 0.203 | 0.209 | 0.279 | 0.806 | 0.748 | 0.665 | 0.535 |  | 0.365 | 0.427 | 0.547 | 0.655 | 0.915 | 0.967 | 0.944 | 0.675 |
| LCLC-103H | 0.589 | 0.725 | 0.68 | 0.646 | 0.723 | 0.701 | 0.821 | 0.848 | 0.765 |  |  |  |  |  | 0.745 | 0.755 | 0.775 | 0.688 |
| LK-2 | 0.643 | 0.788 | 0.562 | 0.565 | 0.755 | 0.261 | 0.284 | 0.341 | 0.345 | 0.67 | 0.925 | 0.863 | 0.788 | 0.821 |  | 1.07 | 0.687 | 0.739 |
| LOU-NH91 | 0.721 | 0.769 | 0.848 | 0.795 | 0.822 | 0.889 | 0.988 | 1.01 | 0.873 | 0.718 | 0.701 | 0.732 | 0.843 | 0.766 | 0.929 | 0.98 | 0.996 | 0.931 |
| LU99A |  | 0.622 | 0.632 | 0.597 | 0.595 | 0.439 | 0.519 | 0.535 | 0.611 | 0.697 | 0.819 | 0.769 | 0.773 | 0.843 | 0.781 | 0.928 | 0.876 | 0.774 |
| LXF-289 | 0.691 | 0.675 | 0.717 | 0.71 | 0.706 | 0.646 | 0.746 | 0.732 | 0.793 | 0.994 | 1.03 | 0.95 | 0.934 | 0.991 | 0.92 | 0.952 | 0.96 | 0.943 |
| NCI-H23 | 0.342 | 0.438 | 0.364 | 0.515 | 0.55 | 0.504 | 0.588 | 0.607 | 0.634 | 0.899 | 0.843 | 1.16 | 1.02 | 1.06 | 0.949 | 1.04 | 1.04 | 0.832 |
| NCI-H322M | 0.513 | 0.471 | 0.482 | 0.452 | 0.489 | 0.882 | 0.823 | 0.833 | 0.741 | 1.03 | 1.19 | 1.27 | 1.36 | 1.24 | 0.956 | 0.976 | 1.02 | 0.814 |
| NCI-H358 | 0.145 | 0.134 | 0.124 | 0.167 | 0.141 | 0.644 | 0.634 | 0.669 | 0.551 |  |  |  |  |  | 0.734 | 0.731 | 1.02 | 0.784 |
| NCI-H522 | 0.727 | 0.771 | 0.735 | 0.786 | 0.811 | 0.853 | 0.964 | 0.95 | 0.928 |  |  |  |  |  |  |  |  |  |
| NCI-H650 | 0.942 | 0.918 | 0.984 | 1.13 | 1.13 | 0.3 | 0.441 | 0.444 | 0.447 |  |  |  |  |  | 0.968 | 1.03 | 1.02 | 0.884 |
| NCI-H661 | 0.518 | 0.589 | 0.621 | 0.614 | 0.534 | 0.735 | 0.775 | 0.831 | 0.819 |  |  |  |  |  | 1.03 | 0.98 | 0.993 | 0.998 |
| NCI-H1299 |  |  |  |  |  |  |  |  |  | 1.04 | 1.03 | 1.03 | 1.1 | 1.02 | 1.07 | 1.09 | 1.15 | 1.07 |
| NCI-H1563 |  |  |  |  |  |  |  |  |  |  |  |  |  |  | 0.881 | 0.863 | 0.955 | 0.854 |
| NCI-H1623 |  |  |  |  |  |  |  |  |  |  |  |  |  |  | 0.899 | 0.832 | 0.889 | 0.833 |
| NCI-H1648 |  |  | 0.452 | 0.454 | 0.427 | 0.381 | 0.335 | 0.455 | 0.462 |  |  |  |  |  |  |  |  |  |
| NCI-H1703 |  |  |  |  |  |  |  |  |  | 0.865 | 0.925 | 0.344 | 0.256 | 0.287 | 0.275 | 0.337 | 0.273 | 0.257 |
| NCI-H1792 |  | 0.432 | 0.418 | 0.349 | 0.443 |  |  |  |  |  | 0.62 | 0.58 | 0.627 | 0.569 |  |  |  |  |
| NCI-H2342 | 0.778 | 0.918 | 0.821 | 0.754 | 0.674 | 0.676 | 0.779 | 0.886 | 0.731 |  |  |  |  |  | 1.04 | 1.04 | 1.01 | 0.972 |
| SW 900 | 1.03 | 0.837 |  | 0.974 | 1.03 | 0.382 | 0.516 | 0.591 | 0.525 |  |  |  |  |  | 0.893 | 0.998 | 1.12 | 0.593 |
